# Marks after values point to notes of the source that are not given here.
# How the values were obtained:
# [1] = Feed intake, body weight development and feed conversion ratio of Zucker rats fed supplemented diets; assay type: in vivo
# Excerpt: Zucker rats are an established model of human early-onset, hyperplastic-hypertrophic obesity and insulin resistance as well as human non-insulin dependent diabetes mellitus.
# (§1) A total of 60 male, 8-10 week old, obese (fa/fa) Zucker rats (Crl:ZUC-Leprfa; Charles River, France) with an initial body weight of 358±24 (mean±SD) g were randomly assigned to five groups of twelve rats each. In addition, 12 male, 8-10 week old, heterozygous lean (fa/+) Zucker rats with an initial body weight of 271±10 g were used as a lean control group. All rats were kept individually in Macrolon cages in a room maintained at 22±1° C. and 50-60% relative humidity with lighting from 06.00 to 18.00 hours. All experimental procedures described followed established guidelines for the care and handling of laboratory animals and were approved by the local Animal Care and Use Committee.
# (§2) The rats were fed semi-purified diets which were composed according to the recommendations of the American Institute of Nutrition (AIN)-93G. Five different diets were used differing in their supplementation. […] Diets were prepared by mixing the dry components and subsequent pelleting with a standard pelleting device (Kahl Laborpressanlage Typ 14-175; Reinbek, Germany). Feed was administered ad libitum, and feed intake was recorded weekly. Experimental diets were fed for 4 weeks. Water was available ad libitum from nipple drinkers during the whole experiment.
# [2] = Organ weights of the rats; assay type: in vivo; settings: obese (fa/fa) Zucker rats, supplemented diet fed 4 wk, means ± SD (n = 12)
# Procedure: (§3) All rats were kept individually in Macrolon cages in a room maintained at 22±1° C. and 50-60% relative humidity with lighting from 06.00 to 18.00 hours. All experimental procedures described followed established guidelines for the care and handling of laboratory animals and were approved by the local Animal Care and Use Committee.
# (§4) Five different diets were used differing in their supplementation. […] Feed was administered ad libitum, and feed intake was recorded weekly. Experimental diets were fed for 4 weeks. Water was available ad libitum from nipple drinkers during the whole experiment.
# [3] = Plasma and lipoprotein lipid concentrations (triacylglycerol, cholesterol; enzymatic kits); assay type: in vivo, Zucker rats; settings: for Cholesterol, HDL / Cholesterol, Plasma / Cholesterol, VLDL + LDL / Triacylglycerols, Plasma / Triacylglycerols, VLDL + LDL: obese (fa/fa) Zucker rats, supplemented diet 4 wk, fasted, means ± SD (n = 12); for TAG concentration in plasma compared with the niacin+DHA+carnitine group / TAG concentrations in plasma compared with the control group / Cholesterol in the VLDL+LDL fraction compared with the obese control group / TAG concentration in the VLDL+LDL fraction compared with the obese control group: within the obese rats; for TAG concentration in plasma compared with the niacin+DHA+carnitine group / TAG concentrations in plasma compared with the control group: P<0.05; for Cholesterol in the VLDL+LDL fraction compared with the obese control group / TAG concentration in the VLDL+LDL fraction compared with the obese control group: P<0.05 where different
# Procedure: as §1, §2
# (§5) The rats were decapitated under CO2 anesthesia in the fasted state. Whole blood was collected into EDTA polyethylene tubes (Sarstedt, Nürnbrecht, Germany). Plasma was separated from whole blood by centrifugation (1,100×g; 10 min) at 4° C. Lipoproteins [VLDL, LDL and high-density lipoproteins (HDL)] were separated by step-wise ultracentrifugation (900,000×g, 1.5 h, 4° C.; Mikro-Ultrazentrifuge, Sorvall Products, Bad Homburg, Germany). All samples were stored at −20° C. pending analysis.
# Triacylglycerol and cholesterol concentrations in plasma and lipoproteins were determined using enzymatic reagent kits from Biocon (Vöhl-Marienhagen, Germany).
# [4] = Fasting glucose concentration in plasma; assay type: in vivo, Zucker rats; settings: for Glucose in plasma: obese (fa/fa) Zucker rats, supplemented diet 4 wk, fasted, means ± SD (n = 12); for Fasting glucose concentration compared with the obese control group: within the obese rats, in words, P<0.05 where different
# Procedure: as §1, §2, §5
# Glucose concentration in plasma was determined by an enzymatic reagent kit from Analyticon Biotechnologies (Lichtenfels, Germany).
# [5] = Non-esterified fatty acids (NEFA) in plasma; assay type: in vivo, Zucker rats; settings: for NEFA in plasma: obese (fa/fa) Zucker rats, supplemented diet 4 wk, fasted, means ± SD (n = 12); for NEFA concentrations in plasma compared with the obese control group: within the obese rats, in words, P<0.05
# Procedure: as §1, §2, §5
# NEFA concentrations in plasma were determined using the NEFA kit from Wako Chemicals (Neuss, Germany).
# [6] = test system: leptin; test: Leptin in plasma (rat ELISA); assay type: in vivo, Zucker rats; settings: for Leptin in plasma: obese (fa/fa) Zucker rats, supplemented diet 4 wk, fasted, means ± SD (n = 12); for Leptin concentrations in plasma compared with the obese control group: within the obese rats, in words, P<0.05 where different
# Procedure: as §1, §2, §5
# (§6) Concentrations of leptin in plasma was determined by rat ELISA kits from BioVendor (Heidelberg, Germany). Concentration of high molecular weight adiponectin was determined by a rat ELISA kit from Shibayagi (Ishihara, Shibukawa, Gunma, Japan).
# [7] = test system: high molecular weight adiponectin; test: High molecular weight adiponectin in plasma (rat ELISA); assay type: in vivo; settings: obese (fa/fa) Zucker rats, supplemented diet 4 wk, fasted, means ± SD (n = 12)
# Procedure: as §1, §2, §5, §6
# [8] = test system: sterol regulatory element-binding protein (SREBP)-1c; test: Relative mRNA concentration in liver, lipogenesis: SREBP-1c; assay type: in vivo, Zucker rats
# Procedure: as §3, §4
# [9] = test system: fatty acid synthase (FAS); test: Relative mRNA concentration in liver, lipogenesis: FAS; assay type: in vivo, Zucker rats
# Procedure: as §3, §4
# [10] = test system: stearoyl-CoA desaturase (SCD); test: Relative mRNA concentration in liver, lipogenesis: SCD; assay type: in vivo; settings: liver of obese Zucker rats, diet 4 wk, obese control = 1.00, means ± SD (n = 12)
# Procedure: as §3, §4
# [11] = test system: fatty acid binding protein (FABP); test: Relative mRNA concentration in liver, fatty acid uptake: FABP; assay type: in vivo, Zucker rats
# Procedure: as §3, §4
# [12] = test system: fatty acid transport protein (FATP); test: Relative mRNA concentration in liver, fatty acid uptake: FATP; assay type: in vivo; settings: liver of obese Zucker rats, diet 4 wk, obese control = 1.00, means ± SD (n = 12)
# Procedure: as §3, §4
# [13] = test system: scavenger receptor CD36; test: Relative mRNA concentration in liver, fatty acid uptake: CD36; assay type: in vivo; settings: liver of obese Zucker rats, diet 4 wk, obese control = 1.00, means ± SD (n = 12)
# Procedure: as §3, §4
# [14] = test system: lipoprotein lipase (LPL); test: Relative mRNA concentration in liver, fatty acid uptake: LPL; assay type: in vivo; settings: liver of obese Zucker rats, diet 4 wk, obese control = 1.00, means ± SD (n = 12)
# Procedure: as §3, §4
# [15] = test system: acyl-CoA oxidase (ACO); test: Relative mRNA concentration in liver, fatty acid oxidation: ACO; assay type: in vivo; settings: liver of obese Zucker rats, diet 4 wk, obese control = 1.00, means ± SD (n = 12)
# Procedure: as §3, §4
# [16] = test system: liver-type carnitine-palmitoyltransferase (L-CPT) I; test: Relative mRNA concentration in liver, fatty acid oxidation: L-CPT I; assay type: in vivo; settings: liver of obese Zucker rats, diet 4 wk, obese control = 1.00, means ± SD (n = 12)
# Procedure: as §3, §4
# [17] = obese (fa/fa) Zucker rats, supplemented diet fed 4 wk, means ± SD (n = 12)
# [18] = within the obese rats, in words, P<0.05 where different
# [19] = liver of obese Zucker rats, diet 4 wk, obese control = 1.00, means ± SD (n = 12)
smiles,measurement,setting,value
C[N+](C)(C)CC(O)CC(=O)[O-] (centres unmarked) [carnitine],Daily body weight gain,[1]; [17],4.85 ± 0.48 ^a g
same,Feed conversion ratio,[1]; [17],5.18 ± 0.63 ^bc g/g
same,Feed intake,[1]; [17],25.1 ± 3.4 ^b g/d
same,Final body weight,[1]; [17],496 ± 31 ^a g
same,Total body weight gain,[1]; [17],138 ± 13 ^a g
same,Daily feed intake compared with the obese control group,[1]; [18],did not differ
same,Feed conversion ratio compared with the obese control group,[1]; [18],did not differ much
same,Absolute organ weights: Heart,[2],1.36 ± 0.12 g
same,Absolute organ weights: Kidney,[2],2.75 ± 0.66 g
same,Absolute organ weights: Liver,[2],25.0 ± 2.8 ^a g
same,Relative organ weights: Heart,[2],2.73 ± 0.15 ^b mg/g body weight
same,Relative organ weights: Kidney,[2],5.52 ± 1.17 mg/g body weight
same,Relative organ weights: Liver,[2],50.4 ± 4.4 ^a mg/g body weight
same,"Cholesterol, HDL",[3],4.64 ± 0.50 ^a mmol/L
same,"Cholesterol, Plasma",[3],7.68 ± 0.92 ^ab mmol/L
same,"Cholesterol, VLDL + LDL",[3],3.12 ± 0.39 ^b mmol/L
same,"Triacylglycerols, Plasma",[3],4.41 ± 0.85 ^c mmol/L
same,"Triacylglycerols, VLDL + LDL",[3],2.65 ± 0.57 ^b mmol/L
same,TAG concentration in plasma compared with the niacin+DHA+carnitine group,[3]; in words,lower
same,TAG concentrations in plasma compared with the control group,[3]; in words,lower
same,Cholesterol in the VLDL+LDL fraction compared with the obese control group,[3]; in words,did not differ
same,TAG concentration in the VLDL+LDL fraction compared with the obese control group,[3]; in words,did not differ
same,Glucose in plasma,[4],7.86 ± 0.75 ^ab mmol/L
same,Fasting glucose concentration compared with the obese control group,[4],did not differ
same,NEFA in plasma,[5],2.41 ± 0.57 ^b mmol/L
same,NEFA concentrations in plasma compared with the obese control group,[5],lower
same,Leptin in plasma,[6],6.09 ± 1.29 ^bc ng/mL
same,Leptin concentrations in plasma compared with the obese control group,[6],did not differ
same,Adiponectin in plasma,[7],122 ± 12 ng/mL
same,"Relative mRNA concentration, SREBP-1c",[8]; [19],0.78 ± 0.31 ^ab
same,Relative mRNA concentration of SREBP-1c in the liver compared with the obese control group,[8]; [18],did not differ
same,Gene expression of fatty acid synthase,"[9]; conclusions, liver of obese diabetic rats, in words",lowered
same,"Relative mRNA concentration, FAS",[9]; [19],0.53 ± 0.49 ^b
same,Relative mRNA concentration of FAS in the liver compared with the obese control group,[9]; [18],lower
same,"Relative mRNA concentration, SCD",[10],0.99 ± 0.33 ^a
same,Relative mRNA concentration of FABP in the liver compared with the other groups,"[11]; in words, P<0.05 where different",did not differ
same,"Relative mRNA concentration, FABP",[11]; [19],0.83 ± 0.29 ^ab
same,"Relative mRNA concentration, FATP",[12],0.93 ± 0.76
same,"Relative mRNA concentration, CD36",[13],0.87 ± 0.22 ^a
same,"Relative mRNA concentration, LPL",[14],1.04 ± 0.20
same,"Relative mRNA concentration, ACO",[15],1.15 ± 0.37
same,"Relative mRNA concentration, L-CPT I",[16],1.15 ± 0.41
"O=C(O)c1cccnc1 [niacin, pyridine-3-carboxylic acid, reference compound]",Daily body weight gain,[1]; [17],4.95 ± 0.73 ^a g
same,Feed intake,[1]; [17],26.2 ± 2.3 ^ab g/d
same,Final body weight,[1]; [17],500 ± 43 ^a g
same,Total body weight gain,[1]; [17],141 ± 19 ^a g
same,Daily feed intake compared with the obese control group,[1]; [18],did not differ
same,Absolute organ weights: Kidney,[2],2.57 ± 0.49 g
same,Lowering of cholesterol in plasma and VLDL/LDL,"[3]; conclusions, obese diabetic rats, in words",significant effect on lowering
same,"Cholesterol, HDL",[3],4.54 ± 0.54 ^a mmol/L
same,"Cholesterol, Plasma",[3],6.91 ± 1.13 ^b mmol/L
same,"Cholesterol, VLDL + LDL",[3],2.70 ± 0.27 ^c mmol/L
same,"Triacylglycerols, Plasma",[3],3.17 ± 0.40 ^d mmol/L
same,"Triacylglycerols, VLDL + LDL",[3],2.08 ± 0.40 ^c mmol/L
same,TAG concentration in plasma compared with the niacin+DHA+carnitine group,[3]; in words,lower
same,TAG concentrations in plasma compared with the control group,[3]; in words,lower
same,Cholesterol in the VLDL+LDL fraction compared with the obese control group,[3]; in words,lower
same,TAG concentration in the VLDL+LDL fraction compared with the obese control group,[3]; in words,lower
same,Glucose in plasma,[4],7.36 ± 0.64 ^b mmol/L
same,Fasting glucose concentration compared with the obese control group,[4],lower
same,NEFA in plasma,[5],2.25 ± 0.46 ^b mmol/L
same,NEFA concentrations in plasma compared with the obese control group,[5],lower
same,Leptin in plasma,[6],6.17 ± 0.71 ^b ng/mL
same,Leptin concentrations in plasma compared with the obese control group,[6],higher
same,Adiponectin in plasma,[7],134 ± 21 ng/mL

# — patent publication US20120148685A1, “METHODS AND COMPOSITIONS FOR TREATING INSULIN RESISTANCE, DIABETES MELLITUS TYPE 2, METABOLIC SYNDROME AND RELATED DISORDERS” (Engergy4Life AG, priority 2009, published 2012)
